Patent US8642764B1, “Julolidine conjugates and methods for their preparation and use” (Jawaharlal Nehru Centre for Advanced Scientific Research, priority 2012, dated 2014)

Experiments:
HEK 293T cells = experiment: Detection of Cu^2+ ions in cells using fluorescence microscopy; format: cell-based
Procedure: HEK 293T cells were grown to 50% confluency in a 30 mm dish containing Dulbecco's modified eagle medium (DMEM) and 10% fetal bovine serum (FBS) at 37° C. and 5% CO2. The cells were washed three times with phosphate-buffered saline (PBS) and stained with julolidine-thiocarbonohydrazone compound (10 μM final concentration) in the growth media without FBS for 10 minutes. The adherent cells were washed three times with PBS to remove excess compound. […] Further, the excess of Cu—(ClO4)2.6H2O was washed off with PBS and then supplemented with EDTA (10 μM) in DMEM without FBS for 10 minutes.

[1] = Fluorometric detection of copper ions; format: physicochemical; conditions: for fluorescence emission: excitation at 430 nm, no metal ion
Procedure: The fluorometric behavior of julolidine-thiocarbonohydrazone compound was studied upon addition of 20.0 equivalents of Li^+, Na^+, Ba^2+, Sr^2+, Mg^2+, […], Ca^2+, Mn^2+, Fe^2+, CO^2+, Ni^2+, Zn^2+, Ag^+, Cd^2+, Hg^2+, Pb^2+ and Cu^2+ in an aqueous buffer medium (50 mM, 2-(4-(2-hydroxyethyl)-1-piperazin-yl)ethanesulfonic acid (HEPES)/CH3CN, 6:4, v/v; pH 7.2). […] The quenched fluorescence of julolidine-thiocarbonohydrazone compound was restored upon treating the julolidine-thiocarbonohydrazone compound —Cu^2+ complex with ethylenediaminetetraacetic acid (EDTA). Fluorescence emission of compound 2 with sequential addition of increasing concentrations (0 to 50 μM) of Cu^2+ is shown in FIG. 5B.

[2] = UV/Vis absorption and colorimetric titration with increasing concentrations of Cu^2+; format: physicochemical; conditions: for extinction coefficient (ε) in the NIR region at maximum: at the Cu^2+ equivalents giving maximum NIR absorbance; for extinction coefficient (ε) at 570 nm at maximum: at the Cu^2+ equivalents giving maximum absorbance at 570 nm; for NIR λmax at maximum absorbance / final solution color: end of the Cu^2+ titration; for visual color change of solution: increasing concentration of Cu^2+ ions; for NIR band λmax / new absorption band in the visible region (λmax): on first appearance in the Cu^2+ titration (1.0 to 2.0 equivalents); for Cu^2+ added at which absorbance at 570 nm reached a maximum / Cu^2+ added at which absorbance in the NIR region reached a maximum: sequential titration, pH 7.2
Procedure: The spectral and colorimetric properties of bi-julolidine compounds were investigated by monitoring the absorption spectral behavior upon addition of increasing concentrations of Cu^2+ in an aqueous buffer medium (50 mM, 2-(4-(2-hydroxyethyl)-1-piperazin-yl)ethanesulfonic acid (HEPES)/CH3CN, 6:4, v/v; pH 7.2). During sequential titration, the absorption spectra of julolidine-carbonohydrazone compound in the visible region gradually shifted from 380 nm to 412 nm with the addition of 1.5 equivalents of Cu^2+ and the colorless solution turned to light green. Increasing the concentration of Cu^2+ in the solution of julolidine-carbonohydrazone compound from 1.5 to 2.0 equivalents led to a change in the solution color from light green to light purple. A new absorption band (λmax=570 nm) appeared in the visible region accompanied by a distinguishable NIR band with λmax centered at 930 nm. The absorbance at 570 nm reached a maximum upon addition of 6.0 equivalents of Cu^2+ with an extinction coefficient (ε) of 2×10^4 M^−1cm^−1 and then decreased with further addition of Cu^2+. The absorbance in the NIR region reached a maximum (ε=5.2×10^4 M^−1cm^−1) upon addition of a total of 8.0 equivalents of Cu^2+ with a gradual shift of λmax from 930 nm to 825 nm, and that remained unchanged upon further addition of Cu^2+. The final solution color of julolidine-carbonohydrazone compound was aqua colored.
During sequential titration of Cu^2+ with julolidine-thiocarbonohydrazone compound, two absorption bands appeared at 570 nm and 980 nm, after addition of 1.0 equivalent of Cu^2+. At that concentration of Cu^2+ ions, the color of the solution of julolidine-thiocarbonohydrazone compound changed from greenish to light purple. The absorbance at 570 nm and 980 nm were enhanced when Cu^2+ concentrations increased from 1.5 to 2.0 equivalents and the purple-colored solution turned to light violet. The absorbance at 570 nm reached a maximum at 5.0 equivalents of Cu^2+ with an extinction coefficient (ε) of 2×10^4 M^−1 cm^−1 and a consequent increase in the intensity of the NIR absorption band was observed. At that concentration of Cu^2+ ions, The solution color of julolidine-thiocarbonohydrazone compound changed from light violet to blue. […] The final solution color of julolidine-thiocarbonohydrazone compound was greenish aqua.

[3] = Specificity of Schiff-base compounds towards Cu^2+ ions (absorption spectra); format: physicochemical; conditions: for absorption band: absence of Cu^2+ ions; for characteristic absorbance in the NIR region / characteristic absorbance in the visible region: presence of Cu^2+ ions
Procedure: The specificity of bi-julolidine Schiff-base compounds, compound 1 and compound 2, in detecting Cu^2+ ions were investigated by monitoring the absorption spectral behavior of the compounds. The experiment was also performed using other Schiff-base compounds that were prepared by condensing different salicylaldehyde derivatives with carbohydrazide and thiocarbohydrazide (compounds 3-8, shown below).

[4] = UV/Vis absorption spectra upon addition of metal ions; format: physicochemical; conditions: Cu^2+ 50.0 equiv; HEPES/CH3CN pH 7.2
Procedure: The photophysical properties of bi-julolidine compounds were investigated by monitoring the absorption spectral behavior upon addition of several metal ions such as Li^+, Na^+, Ba^2+, Sr^2+, Mg^2+, Al^3+, Ca^2+, Mn^2+, Fe^2+, Co^2+, Ni^2+, Zn^2+, Ag^+, Cd^2+, Hg^2+, Pb^2+ and Cu^2+ in an aqueous buffer medium (50 mM, 2-(4-(2-hydroxyethyl)-1-piperazin-yl)ethanesulfonic acid (HEPES)/CH3CN, 6:4, v/v; pH 7.2). […] With the addition of 50.0 equivalents of Co^2+, Ni^2+and Zn^2+, the absorbance intensity decreased and slightly red shifted to different extents (Ni^2+=408.5 nm; Zn^2+=410 nm; Co^2+=409 nm).
Representative examples are shown in FIG. 1 and FIG. 2 using compound 1 and 2, respectively.

SMILES | extinction coefficient (ε) in the NIR region at maximum [2] [M⁻¹ cm⁻¹] | extinction coefficient (ε) at 570 nm at maximum [2] [M⁻¹ cm⁻¹] | NIR λmax at maximum absorbance [2] [nm] | final solution color [2] | visual color change of solution [2] | NIR band λmax [2] [nm] | new absorption band in the visible region (λmax) [2] [nm] | Cu^2+ added at which absorbance at 570 nm reached a maximum [2] [equivalents] | Cu^2+ added at which absorbance in the NIR region reached a maximum [2] [equivalents] | absorption band [3] | characteristic absorbance in the NIR region [3] [nm] | characteristic absorbance in the visible region [3] [nm] | characteristic absorbance in the NIR region [4] | characteristic absorbance in the visible region [4] [nm] | also measured
Oc1c(/C=N/NC(=S)N/N=C/c2cc3c4c(c2O)CCCN4CCC3)cc2c3c1CCCN3CCC2 [compound 2, julolidine-thiocarbonohydrazone] | 52000 | 20000 | 820 | greenish aqua | from light green to light violet, then to light blue and then to greenish aqua | 980 | 570 | 5.0 | 15.0 | around 380 nm | 825 | 570 | around 820 nm | 570 | fluorescence in cells after staining (HEK 293T cells; 10 μM, 10 minutes, HEK 293T): presence of fluorescent julolidine-thiocarbonohydrazone compound in cells; intracellular fluorescence after Cu^2+ supplementation (HEK 293T cells; Cu(ClO4)2.6H2O 10 μM, 10 minutes): complete suppression of intracellular fluorescence; intracellular fluorescence after EDTA (HEK 293T cells; EDTA 10 μM, 10 minutes, after Cu^2+ was washed off): recovery of intracellular fluorescence; cell permeability (HEK 293T cells; HEK 293T living cells): cell-permeable; fluorescence emission in the presence of other metal ions ([1]; 20.0 equivalents of Li+, Na+, Ba2+, Sr2+, Mg2+, Ca2+, Mn2+, Fe2+, Co2+, Ni2+, Zn2+, Ag+, Cd2+, Hg2+, Pb2+): no significant changes; fluorescence intensity around 535 nm in the presence of Cu^2+ ([1]; 430 nm excitation, 20.0 equivalents of Cu^2+): quenched; quenched fluorescence after treating the Cu^2+ complex with EDTA ([1]; EDTA): restored; fluorescence emission [1]: about 535 nm; fluorescence emission ([1]; listed as Julolidine-thiocarbonohydrazone compound): around 535 nm
O=C(N/N=C/c1cc2c3c(c1O)CCCN3CCC2)N/N=C/c1cc2c3c(c1O)CCCN3CCC2 [compound 1, julolidine-carbonohydrazone] | 52000 | 20000 | 825 | aqua colored | light green, then to light purple, and then to aqua color | 930 | 570 | 6.0 | 8.0 | around 380 nm | 825 | 495 | 823 nm | 495 | absorption in the visible region, shifted from 380 nm ([2]; addition of 1.5 equivalents of Cu^2+): 412 nm
